Target: T1, active BTK enzyme (Upstate 14-552) (Homo sapiens, UniProt Q06187)
T1 construct: purchased Upstate 14-552
Assay: In Vitro BTK Kinase Assay: Btk-PolyGAT-LS Assay
Type: biochemical
Conditions: ATP 10 μM, polyGAT 100 nM, BTK 0.25 nM, 30 minutes, TRF readout
Protocol: In Vitro BTK Kinase Assay: Btk-PolyGAT-LS Assay The purpose of the BTK in vitro assay is to determine compound potency against BTK through the measurement of IC50. Compound inhibition is measured after monitoring the amount of phosphorylation of a fluorescein-labeled polyGAT peptide (Invitrogen PV3611) in the presence of active BTK enzyme (Upstate 14-552), ATP, and inhibitor. The BTK kinase reaction was done in a black 96 well plate (costar 3694). For a typical assay, a 24 μL aliquot of a ATP/peptide master mix (final concentration; ATP 10 μM, polyGAT 100 nM) in kinase buffer (10 mM Tris-HCl pH 7.5, 10 mM MgCl2, 200 μM […], 5 mM DTT, 0.01% Triton X-100, and 0.2 mg/ml casein) is added to each well. Next, […] of a 4-fold, 40× compound titration in 100% DMSO solvent is added, followed by adding 15 μL of BTK enzyme mix in 1× kinase buffer (with a final concentration of 0.25 nM). The assay is incubated for 30 minutes before being stopped with 28 μL of a 50 mM EDTA solution. Aliquots (5 μL) of the kinase reaction are transferred to a low volume white 384 well plate (Coming 3674), and 5 μL of a 2× detection buffer (Invitrogen PV3574, with 4 nM Tb-PY20 antibody, Invitrogen PV3552) is added. The plate is covered and incubated for 45 minutes at room temperature. Time resolved fluorescence (TRF) on Molecular Devices M5 (332 nm excitation; 488 nm emission; 518 nm fluorescein emission) is measured. IC50 values are calculated using a four parameter fit with 100% enzyme activity determined from the DMSO control and 0% activity from the EDTA control.

T1 sequence (Q06187 whole entry): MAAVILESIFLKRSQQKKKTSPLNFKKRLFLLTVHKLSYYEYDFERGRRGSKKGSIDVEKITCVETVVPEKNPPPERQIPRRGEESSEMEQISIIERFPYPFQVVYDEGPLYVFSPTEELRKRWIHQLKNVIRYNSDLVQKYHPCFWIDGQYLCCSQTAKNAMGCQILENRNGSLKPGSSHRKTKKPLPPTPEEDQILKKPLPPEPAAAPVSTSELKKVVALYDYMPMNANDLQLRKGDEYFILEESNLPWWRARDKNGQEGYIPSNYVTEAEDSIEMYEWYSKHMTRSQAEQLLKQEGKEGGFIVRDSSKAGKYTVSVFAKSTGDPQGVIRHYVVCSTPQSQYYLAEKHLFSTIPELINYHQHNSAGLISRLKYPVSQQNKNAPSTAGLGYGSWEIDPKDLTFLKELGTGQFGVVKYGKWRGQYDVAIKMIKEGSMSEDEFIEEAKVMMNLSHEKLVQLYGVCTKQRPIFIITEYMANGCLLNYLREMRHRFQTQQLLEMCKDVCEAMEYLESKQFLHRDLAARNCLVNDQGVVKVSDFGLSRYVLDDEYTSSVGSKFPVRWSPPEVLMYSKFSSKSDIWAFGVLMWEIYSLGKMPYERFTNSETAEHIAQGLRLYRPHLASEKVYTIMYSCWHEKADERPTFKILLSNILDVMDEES

| SMILES | IC50 [nM] |
| --- | --- |
| C=CC(=O)N(C)C1CCCN(c2cnccc2-c2ccc(CNC(=O)c3cnc(C(C)(C)C)o3)c(C)c2)C1 (centres unmarked) [Example 38, 2-(tert-butyl)-N-(2-methyl-4-(3-(3-(N-methylacrylamido)piperidin-1-yl)pyridin-4-yl)benzyl)oxazole-5-carboxamide] | ≤ 1 |
| C=CC(=O)N1CC2(CCN(c3cnccc3-c3ccc(CNC(=O)c4noc(C(C)(C)C)n4)c(C)c3)C2)C1 [Example 7, N-(4-(3-(2-acryloyl-2,6-diazaspiro[3.4]octan-6-yl)pyridin-4-yl)-2-methylbenzyl)-5-(tert-butyl)-1,2,4-oxadiazole-3-carboxamide] | > 10 |
| C=C(F)C(=O)N1CCN(c2cncnc2-c2ccc(CNC(=O)c3noc(C(C)(C)C)n3)c(C)c2)CC1 [Example 81, 5-(tert-butyl)-N-(4-(5-(4-(2-fluoroacryloyl)piperazin-1-yl)pyrimidin-4-yl)-2-methylbenzyl)-1,2,4-oxadiazole-3-carboxamide] | 1 to 10 |
| C=CC(=O)N1CCN(c2cnccc2-c2ccc(CNC(=O)c3noc(C(C)(C)C)c3F)c(C)c2)CC1 [Example 96, N-(4-(3-(4-acryloylpiperazin-1-yl)pyridin-4-yl)-2-methylbenzyl)-5-(tert-butyl)-4-fluoroisoxazole-3-carboxamide] | ≤ 1 |
| C=CC(=O)N(C)CC1CCCN(c2cnccc2-c2ccc(CNC(=O)c3noc(C(C)(C)C)n3)c(C)c2)C1 (centres unmarked) [Example 21, 5-(tert-butyl)-N-(2-methyl-4-(3-(3-((N-methylacrylamido)methyl)piperidin-1-yl)pyridin-4-yl)benzyl)-1,2,4-oxadiazole-3-carboxamide] | 1 to 10 |
| C=CC(=O)N1CCC2(CCN(c3cnccc3-c3ccc(CNC(=O)c4cn(C(C)(C)C)nn4)c(C)c3)C2)C1 (centres unmarked) [Example 4, N-(4-(3-(7-acryloyl-2,7-diazaspiro[4.4]nonan-2-yl)pyridin-4-yl)-2-methylbenzyl)-1-(tert-butyl)-1H-1,2,3-triazole-4-carboxamide] | > 10 |
| C=CC(=O)N(C)CC1CCN(c2cnccc2-c2ccc(CNC(=O)c3noc(C(C)(C)C)n3)c(C)c2)C1 (centres unmarked) [Example 20, 5-(tert-butyl)-N-(2-methyl-4-(3-(3-((N-methylacrylamido)methyl)pyrrolidin-1-yl)pyridin-4-yl)benzyl)-1,2,4-oxadiazole-3-carboxamide] | ≤ 1 |
| CC#CC(=O)N1CCN(c2cnccc2-c2ccc(CNC(=O)c3noc(C(C)(C)C)n3)c(C)c2)CC1 [Example 62, N-(4-(3-(4-(but-2-ynoyl)piperazin-1-yl)pyridin-4-yl)-2-methylbenzyl)-5-(tert-butyl)-1,2,4-oxadiazole-3-carboxamide] | ≤ 1 |
| Cc1cc(-c2ccncc2N2CCN(C(=O)C3CO3)CC2)ccc1CNC(=O)c1noc(C(C)(C)C)n1 (centres unmarked) [Example 59, 5-(tert-butyl)-N-(2-methyl-4-(3-(4-(oxirane-2-carbonyl)piperazin-1-yl)pyridin-4-yl)benzyl)-1,2,4-oxadiazole-3-carboxamide] | 1 to 10 |
| Cc1cc(-c2ccncc2N2CCN(C(=O)/C=C/CN(C)C)C(C(F)(F)F)C2)ccc1CNC(=O)c1noc(C(C)(C)C)n1 (centres unmarked) [Example 75, (E)-5-(tert-butyl)-N-(4-(3-(4-(4-(dimethylamino)but-2-enoyl)-3-(trifluoromethyl)piperazin-1-yl)pyridin-4-yl)-2-methylbenzyl)-1,2,4-oxadiazole-3-carboxamide] | ≤ 1 |
| C=CC(=O)N1CC2CC1CN(c1cnccc1-c1ccc(CNC(=O)c3cc(C(C)(C)C)on3)c(C)c1)C2 (centres unmarked) [Example 55, 5-tert-butyl-N-[[2-methyl-4-[3-(6-prop-2-enoyl-3,6-diazabicyclo[3.2.1]octan-3-yl)-4-pyridyl]phenyl]methyl]isoxazole-3-carboxamide] | > 10 |
| C=CC(=O)N(C)[C@@H]1CCCN(c2cncc(C#N)c2-c2ccc(CNC(=O)c3cn(C(C)(C)C)nn3)c(C)c2)C1 [Example 48, (R)-1-(tert-butyl)-N-(4-(3-cyano-5-(3-(N-methylacrylamido)piperidin-1-yl)pyridin-4-yl)-2-methylbenzyl)-1H-1,2,3-triazole-4-carboxamide] | ≤ 1 |
| C=CC(=O)N1CCN(c2cncnc2-c2ccc(CNC(=O)c3nnn(C(C)(C)C)n3)c(C)c2)CC1 [Example 79, N-(4-(5-(4-acryloylpiperazin-1-yl)pyrimidin-4-yl)-2-methylbenzyl)-2-(tert-butyl)-2H-tetrazole-5-carboxamide] | ≤ 1 |
| C=CC(=O)N(C)C1CCN(c2cnccc2-c2ccc(CNC(=O)c3cn(C(C)(C)C)nn3)c(C)c2)C1=O (centres unmarked) [Example 11, 1-(tert-butyl)-N-(2-methyl-4-(3-(3-(N-methylacrylamido)-2-oxopyrrolidin-1-yl)pyridin-4-yl)benzyl)-1H-1,2,3-triazole-4-carboxamide] | > 10 |
| C=CC(=O)N1CCN(c2cncnc2-c2ccc(CNC(=O)c3nc(C(C)(C)C)no3)c(C)c2)CC1 [Example 83, N-(4-(5-(4-acryloylpiperazin-1-yl)pyrimidin-4-yl)-2-methylbenzyl)-3-(tert-butyl)-1,2,4-oxadiazole-5-carboxamide] | ≤ 1 |
| CN(C)C/C=C/C(=O)N1CCN(c2cnccc2-c2ccc(CNC(=O)c3noc(C(C)(C)C)n3)c(C(F)F)c2)CC1 [Example 87, (E)-5-(tert-butyl)-N-(2-(difluoromethyl)-4-(3-(4-(4-(dimethylamino)but-2-enoyl)piperazin-1-yl)pyridin-4-yl)benzyl)-1,2,4-oxadiazole-3-carboxamide] | ≤ 1 |
| Cc1cc(-c2ccncc2N2CCN(C(=O)/C=C/CN3CC(F)C3)CC2)ccc1CNC(=O)c1noc(C(C)(C)C)n1 [Example 64, (E)-5-(tert-butyl)-N-(4-(3-(4-(4-(3-fluoroazetidin-1-yl)but-2-enoyl)piperazin-1-yl)pyridin-4-yl)-2-methylbenzyl)-1,2,4-oxadiazole-3-carboxamide] | 1 to 10 |
| Cc1cc(-c2ccncc2N2CCN(C(=O)/C=C/CN3CCC3)CC2)ccc1CNC(=O)c1noc(C(C)(C)C)n1 [Example 66, (E)-N-(4-(3-(4-(4-(azetidin-1-yl)but-2-enoyl)piperazin-1-yl)pyridin-4-yl)-2-methylbenzyl)-5-(tert-butyl)-1,2,4-oxadiazole-3-carboxamide] | 1 to 10 |
| C=CC(=O)N1CCN(c2cncnc2-c2ccc(CNC(=O)c3nc(C4(C)CC4)no3)c(C)c2)CC1 [Example 84, N-(4-(5-(4-acryloylpiperazin-1-yl)pyrimidin-4-yl)-2-methylbenzyl)-3-(1-methylcyclopropyl)-1,2,4-oxadiazole-5-carboxamide] | ≤ 1 |
| C#CC(=O)N1CCN(c2cnccc2-c2ccc(CNC(=O)c3noc(C(C)(C)C)n3)c(C)c2)CC1 [Example 60, 5-(tert-butyl)-N-(2-methyl-4-(3-(4-propioloylpiperazin-1-yl)pyridin-4-yl)benzyl)-1,2,4-oxadiazole-3-carboxamide] | ≤ 1 |
| CN(C)C/C=C/C(=O)N1CCN(c2cnccc2-c2ccc(CNC(=O)c3nc(C(C)(C)C)no3)c(C(F)F)c2)CC1 [Example 89, (E)-3-(tert-butyl)-N-(2-(difluoromethyl)-4-(3-(4-(4-(dimethylamino)but-2-enoyl)piperazin-1-yl)pyridin-4-yl)benzyl)-1,2,4-oxadiazole-5-carboxamide] | ≤ 1 |
| C=CC(=O)N1CCC2(CCN(c3cnccc3-c3ccc(CNC(=O)c4cn(C)nc4C(F)F)c(C)c3)C2)C1 (centres unmarked) [Example 5, N-(4-(3-(7-acryloyl-2,7-diazaspiro[4.4]nonan-2-yl)pyridin-4-yl)-2-methylbenzyl)-3-(difluoromethyl)-1-methyl-1H-pyrazole-4-carboxamide] | > 10 |
| C=CC(=O)N(C)C1CCCN(c2cnccc2-c2ccc(CNC(=O)c3ncc(C(C)(C)C)o3)c(C)c2)C1 (centres unmarked) [Example 45, 5-(tert-butyl)-N-(2-methyl-4-(3-(3-(N-methylacrylamido)piperidin-1-yl)pyridin-4-yl)benzyl)oxazole-2-carboxamide] | ≤ 1 |
| C=CC(=O)N(C)[C@@H]1CCCN(c2cncc(C#N)c2-c2ccc(CNC(=O)c3cn(C(C)(C)C)nn3)c(C)c2F)C1 [Example 47, 1-(tert-butyl)-N-(4-(3-cyano-5-((R)-3-(N-methylacrylamido)piperidin-1-yl)pyridin-4-yl)-3-fluoro-2-methylbenzyl)-1H-1,2,3-triazole-4-carboxamide] | ≤ 1 |
| Cc1cc(-c2c(F)cncc2N2CCN(C(=O)/C=C/CN(C)C)CC2)ccc1CNC(=O)c1noc(C(C)(C)C)n1 [Example 76, (E)-5-(tert-butyl)-N-(4-(3-(4-(4-(dimethylamino)but-2-enoyl)piperazin-1-yl)-5-fluoropyridin-4-yl)-2-methylbenzyl)-1,2,4-oxadiazole-3-carboxamide] | ≤ 1 |
| C=CC(=O)N(C)C1CCCN(c2cnccc2-c2ccc(CNC(=O)c3cn(C(C)(C)C)nn3)c(C)c2)C1=O (centres unmarked) [Example 10, 1-(tert-butyl)-N-(2-methyl-4-(3-(3-(N-methylacrylamido)-2-oxopiperidin-1-yl)pyridin-4-yl)benzyl)-1H-1,2,3-triazole-4-carboxamide] | > 10 |

Reference: patent publication US20240327380A1, “BTK INHIBITORS” (BIOGEN MA INC., priority 2020, published 2024)
